From US5326694A, “Process for synthesizing human H2-prorelaxin, human H2-relaxin and fusion proteins thereof” (Howard Florey Institute of Experimental Physiology and …, priority 1982, dated 1994)
Ends that are not written are not given here.

Tested on: spontaneous contractions of the rat uterus
Experiment: rat uterine contractility assay (Wiqvist & Paul)
Type: cell-based
Protocol: Using the above conditions chain combination yields from 1.5 to 6.0% have been achieved as measured by biological activity in the rat uterine contractility assay of Wiqvist & Paul (Acta Endocrinol., 29, 135-136, 1958).
Human relaxin H2 [S-thioethyl Cys^10,11,15 ] A(1-24) (4.2 mg dry wt., 2.4 mg peptide by amino acid analysis, 0.84 μmole) was dissolved in 500 μl of 0.1M glycine buffer pH 10.5 in a 3 ml stoppered plastic centrifuge tube. Human relaxin H2 [S-sulfo Cys^10,11 ] B(-1-24) (1.60 mg, 1.60 mg peptide by amino acid analysis, 0.33 μmole) dissolved in 200 μl of 0.1M glycine buffer pH 10.5 was added and the mixture agitated. An aliquot (23.0 μl, 2.21 μmole DTT) of a stock solution of dithithreitol (DTT) made up in 0.1M glycine buffer pH 10.5 (0.96 μmole DTT in 10 μl) was added to the peptide solution and following a brief agitation the reaction mixture was allowed to stand at 4° C. for 24 hours open to the air. The mixture was then centrifuged and aliquots of the supernatant solution tested for relaxin biological activity in the rat uterine contractility assay.
The synthetic S-sulfonated and S-thioethyl H2 human relaxin A(1-24) peptides were coupled to S-thioethyl H2 human relaxin B(-1-32) using the same chain combination procedures described previously for the shortened B-chain (-1-24). […]

## hRLX A(1-24)-B(-1-32): Authentic human relaxin H2: synthetic A chain (1-24) combined with full length B chain (-1-32) (Relaxin B chain DSWMEEVIKLCGRELVRAQIAICGMSTWS; Relaxin A chain QLYSALANKCCHVGCTKRSLARFC; ends and bridges not checked; cysteine pairing not given here; UniProt P04090 25-53; P04090 162-185, looked up)
100 μl aliquot of chain combination mixture, compared to native pig relaxin A22 B31 standard
  inhibition of uterine contractions by a 100 μl aliquot: completely inhibited uterine contractions
Aliquots of supernatant of chain combination mixture
  inhibition of the spontaneous contractions of the rat uterus by aliquots of the chain combination reaction mixture: inhibited the spontaneous contractions of the rat uterus in a dose-related manner
